Results from ChEMBL document CHEMBL1201862, “PubChem BioAssay data set” (2004).
Active and inactive are the calls of the source.

Legend:
[1] = target: Mitogen-activated protein kinase 10 (Homo sapiens, UniProt P53779); experiment: Dose response biochemical screening assay for inhibitors of c-Jun N-Terminal Kinase 3 (JNK3). [Related pubchem assays: 746 ]
Vero [2] = experiment: inhibition of WNV-induced cytopathic effect – cell-based, CPE readout (AID 1621); format: functional; details: Chlorocebus sabaeus
Vero [3] = experiment: cells; format: functional, cell-based; details: Chlorocebus sabaeus
[4] = target: Induced myeloid leukemia cell differentiation protein Mcl-1 (Homo sapiens, UniProt Q07820); format: functional
[5] = viability loss in THP-1 monocytes – THP-1 cells, cytotoxicity control for Vif-APOBEC3G degradation inhibitor project, dose response (AID 1117359); format: functional; details: THP-1
Transthyretin = Transthyretin (Homo sapiens, UniProt P02766); experiment: Luminescence-based cell-based high throughput dose response assay to identify activators of Transthyretin (TTR) transcription.; format: functional
[6] = target: E3 ubiquitin-protein ligase Mdm2 (Homo sapiens, UniProt Q00987); experiment: MDM2-luc reporter signal enhancers, multi-concentration potency testing, MDM2 ubiquitin-protein ligase inhibitor program, whole-cell format, luminescence detection, 384-well microplate (AID 1394); format: functional;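 further: MDM2 E3 inhibitors raise luminescence so EC50 is for signal enhancement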
[7] = lung carcinoma cell viability loss – CellTiter-Glo luminescence, dry powder, set 17, dose response (AID 1117284); format: functional, cell-based; details: A549
[8] = CellTiter-Glo luminescence survival assay, SW480 colon tumor line, concentration-response curve, half-maximal inhibitory concentration (AID 1117338); format: functional
[9] = IC50 of insulin release inhibition, rat insulinoma INS-1E line, 5 mM glucose, cell-based (AID 1117331); format: functional
[10] = RKO cell viability reduction, dose response, CellTiter-Glo luminescence (AID 1117322); format: functional
[11] = cytotoxicity toward HCT116 cells – cell-based, CellTiter-Glo luminescence, IC50, dose response (AID 1117332); format: functional; details: HCT-116
[12] = SNU-C1 cell viability reduction, dose response, CellTiter-Glo luminescence (AID 1117323); format: functional, cell-based
cells = format: functional, cell-based; details: INS-1E
[13] = cytotoxicity toward HT-29 cells – cell-based, CellTiter-Glo luminescence, IC50, dose response (AID 1117330); format: functional
[14] = Reduced DLD-1 viability, concentration-response, CellTiter-Glo luminescence (AID 1117352); format: functional
[15] = HCT116 cell viability decrease, GSK3B pretreatment – CellTiter-Glo, IC50, dose response (AID 1117339); format: functional; details: HCT-116
Galanin receptor type 2 = Galanin receptor type 2 (Homo sapiens, UniProt O43603); experiment: Dose Response cell-based high-throughput screening assay to identify antagonists of galanin receptor 2 (GALR2). [Related pubchem assays: 828, 866 ]; format: functional
[16] = target: Sphingosine 1-phosphate receptor 4 (Homo sapiens, UniProt O95977); experiment: Fluorescence dose response cell-based high throughput screening assay for antagonists of the Sphingosine 1-Phosphate Receptor 4 (S1P4). [Related pubchem assays: 1524 (Confirmation in triplicates.), 1510 (Primary screen.)]; format: functional
[17] = target: Sphingosine 1-phosphate receptor 1 (Homo sapiens, UniProt P21453); format: functional;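 further: Tango beta-arrestin reporter U2OS cells stimulated with S1P near its EC80; inhibitor potency meaning antagonism of receptor activation by the natural agonist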
[18] = target: T1, Microphthalmia-associated transcription factor (Homo sapiens, UniProt O75030); experiment: reducers of TRPM1 reporter luminescence, concentration series – cell-based, SK-MEL-5, cherry-picked, set 3, MITF inhibitor project, dose response (AID 493073); format: functional;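 further: SK-MEL-5 melanoma cells with luciferase driven by the MITF target TRPM1 promoter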
T1 sequence (O75030 whole entry): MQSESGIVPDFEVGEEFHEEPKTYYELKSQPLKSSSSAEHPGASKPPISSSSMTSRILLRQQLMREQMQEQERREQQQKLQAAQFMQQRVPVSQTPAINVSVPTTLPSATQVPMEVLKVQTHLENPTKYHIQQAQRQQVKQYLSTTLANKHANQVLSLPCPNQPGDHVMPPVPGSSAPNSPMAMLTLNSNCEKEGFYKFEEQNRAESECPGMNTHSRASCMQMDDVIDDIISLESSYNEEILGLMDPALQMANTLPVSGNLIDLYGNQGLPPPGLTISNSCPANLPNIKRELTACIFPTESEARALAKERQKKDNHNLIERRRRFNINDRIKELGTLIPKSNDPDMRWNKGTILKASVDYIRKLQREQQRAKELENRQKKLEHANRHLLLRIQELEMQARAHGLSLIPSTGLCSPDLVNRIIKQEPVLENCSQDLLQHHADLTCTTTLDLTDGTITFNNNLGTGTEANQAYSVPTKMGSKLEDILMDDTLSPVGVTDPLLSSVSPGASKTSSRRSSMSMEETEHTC

[19] = activation of miR-122 Renilla sensor silencing – cell-based, Huh7 psiCHECK-miR122, Renilla luciferase, cherry-picked, dose response (AID 651956); format: functional;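 further: huh7 hepatoma cells stably carrying a psiCHECK-2 miR-122 sensor plasmid; renilla luciferase signal reporting endogenous miR-122 activity after 48 h compound exposure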
[20] = general mammalian cell viability loss – activator set, cherry-pick, cytotoxicity control for miR-122 modulator project, dose response (AID 720690); format: functional, cell-based;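 further: HEK293T human cells scored for general mammalian cytotoxicity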
[21] = viability inhibitors of stage V gametocytes – luminescence, dose response (AID 1117278); format: functional, cell-based;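 further: gametocytes exposed to compound for 24 hours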
[22] = viability loss in human Jurkat cells – cell-based, luminescence, cytotoxicity control for P. falciparum gametocyte viability project, dose response (AID 1117277); format: functional;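 further: potency reflects loss of cellular ATP meaning fewer viable cells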
[23] = target: Serine/threonine-protein phosphatase PP1-alpha catalytic subunit (Homo sapiens, UniProt P62136); experiment: inhibition of protein phosphatase 1 activity – biochemical, fluorescence, dose response (AID 2394)
[24] = target: T2, Serine/threonine-protein phosphatase (Homo sapiens, UniProt Q9BPW0); experiment: inhibition of protein phosphatase 5 activity – biochemical, fluorescence, dose response (AID 2395)
T2 sequence (Q9BPW0 whole entry): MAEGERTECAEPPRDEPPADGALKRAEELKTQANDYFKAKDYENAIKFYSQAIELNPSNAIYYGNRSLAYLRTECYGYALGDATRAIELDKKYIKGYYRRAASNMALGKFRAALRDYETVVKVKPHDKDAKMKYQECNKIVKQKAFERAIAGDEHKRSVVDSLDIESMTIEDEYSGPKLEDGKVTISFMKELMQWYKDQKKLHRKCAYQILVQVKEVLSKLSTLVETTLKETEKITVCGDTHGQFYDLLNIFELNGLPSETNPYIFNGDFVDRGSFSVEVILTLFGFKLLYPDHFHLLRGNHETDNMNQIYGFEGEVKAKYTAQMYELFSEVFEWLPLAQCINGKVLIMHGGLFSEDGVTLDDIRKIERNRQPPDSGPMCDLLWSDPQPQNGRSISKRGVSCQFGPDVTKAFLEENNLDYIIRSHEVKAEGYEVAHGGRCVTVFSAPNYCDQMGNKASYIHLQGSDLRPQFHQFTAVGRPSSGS

[25] = target: T3, Sentrin-specific protease 8 (Homo sapiens, UniProt Q96LD8); format: functional
T3 sequence (Q96LD8 whole entry): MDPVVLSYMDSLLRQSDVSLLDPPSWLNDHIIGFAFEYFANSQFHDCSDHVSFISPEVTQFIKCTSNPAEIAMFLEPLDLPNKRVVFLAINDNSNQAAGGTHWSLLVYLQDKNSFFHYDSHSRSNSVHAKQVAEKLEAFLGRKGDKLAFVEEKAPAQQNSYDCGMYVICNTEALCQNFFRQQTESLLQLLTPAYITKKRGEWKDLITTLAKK

[26] = target: T3, Sentrin-specific protease 8; format: functional; remark: listed apart in the source
[27] = target: T4, Histone-lysine N-methyltransferase NSD2 (Homo sapiens, UniProt O96028); format: biochemical
T4 sequence (O96028 whole entry): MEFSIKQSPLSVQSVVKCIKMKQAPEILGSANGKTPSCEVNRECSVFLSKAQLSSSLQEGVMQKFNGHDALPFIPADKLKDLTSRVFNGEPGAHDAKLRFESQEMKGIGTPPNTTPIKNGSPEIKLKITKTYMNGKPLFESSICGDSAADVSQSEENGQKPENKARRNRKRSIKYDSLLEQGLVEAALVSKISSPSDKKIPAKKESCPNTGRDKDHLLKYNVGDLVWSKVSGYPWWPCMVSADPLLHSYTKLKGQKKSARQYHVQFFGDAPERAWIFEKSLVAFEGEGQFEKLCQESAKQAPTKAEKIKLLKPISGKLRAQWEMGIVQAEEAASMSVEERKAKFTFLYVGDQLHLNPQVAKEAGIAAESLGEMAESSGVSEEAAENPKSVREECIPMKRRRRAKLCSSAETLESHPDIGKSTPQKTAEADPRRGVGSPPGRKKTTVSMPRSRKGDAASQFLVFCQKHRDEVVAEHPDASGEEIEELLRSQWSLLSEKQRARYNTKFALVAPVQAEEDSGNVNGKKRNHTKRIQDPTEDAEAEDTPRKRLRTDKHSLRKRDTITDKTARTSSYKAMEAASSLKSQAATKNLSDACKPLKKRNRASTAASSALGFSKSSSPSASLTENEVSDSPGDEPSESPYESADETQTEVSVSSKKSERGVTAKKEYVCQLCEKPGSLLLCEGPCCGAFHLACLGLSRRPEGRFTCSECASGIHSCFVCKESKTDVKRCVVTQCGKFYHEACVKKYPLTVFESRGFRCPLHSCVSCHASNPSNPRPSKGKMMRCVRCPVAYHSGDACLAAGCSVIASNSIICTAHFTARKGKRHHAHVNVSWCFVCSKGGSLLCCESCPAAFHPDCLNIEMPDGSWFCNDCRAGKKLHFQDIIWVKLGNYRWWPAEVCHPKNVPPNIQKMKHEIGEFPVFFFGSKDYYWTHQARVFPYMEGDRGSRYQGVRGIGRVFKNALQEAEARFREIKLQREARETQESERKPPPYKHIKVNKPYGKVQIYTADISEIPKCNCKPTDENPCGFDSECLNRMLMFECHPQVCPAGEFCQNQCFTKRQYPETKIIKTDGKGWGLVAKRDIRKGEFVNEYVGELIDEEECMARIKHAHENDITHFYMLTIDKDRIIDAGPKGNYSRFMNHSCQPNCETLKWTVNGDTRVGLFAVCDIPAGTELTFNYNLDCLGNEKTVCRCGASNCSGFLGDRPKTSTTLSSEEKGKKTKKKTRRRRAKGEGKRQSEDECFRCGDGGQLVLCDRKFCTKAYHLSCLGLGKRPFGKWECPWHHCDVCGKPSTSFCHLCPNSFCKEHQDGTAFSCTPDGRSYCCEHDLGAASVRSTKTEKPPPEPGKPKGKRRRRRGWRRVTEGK

[28] = target: Muscarinic acetylcholine receptor M1 (Rattus norvegicus, UniProt P08482); experiment: concentration-dependent potentiation of ACh at M1 – cell-based, calcium mobilization, CHO-K1, ACh EC20, dose response (AID 2425); format: functional
Sequence of Muscarinic acetylcholine receptor M1 (P08482 whole entry): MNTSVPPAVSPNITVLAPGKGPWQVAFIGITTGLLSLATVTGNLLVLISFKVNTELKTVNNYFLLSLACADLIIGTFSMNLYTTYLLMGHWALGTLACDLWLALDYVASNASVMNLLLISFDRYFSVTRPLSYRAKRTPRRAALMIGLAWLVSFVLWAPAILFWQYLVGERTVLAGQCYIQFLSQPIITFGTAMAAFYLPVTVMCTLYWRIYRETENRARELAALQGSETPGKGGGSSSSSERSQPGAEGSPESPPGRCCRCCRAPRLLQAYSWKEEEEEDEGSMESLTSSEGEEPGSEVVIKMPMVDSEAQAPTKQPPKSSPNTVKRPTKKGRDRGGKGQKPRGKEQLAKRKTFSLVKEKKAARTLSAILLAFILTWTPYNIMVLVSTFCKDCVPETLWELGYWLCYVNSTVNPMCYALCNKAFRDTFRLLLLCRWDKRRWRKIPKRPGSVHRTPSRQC

Sequence of E3 ubiquitin-protein ligase Mdm2 (Q00987 whole entry): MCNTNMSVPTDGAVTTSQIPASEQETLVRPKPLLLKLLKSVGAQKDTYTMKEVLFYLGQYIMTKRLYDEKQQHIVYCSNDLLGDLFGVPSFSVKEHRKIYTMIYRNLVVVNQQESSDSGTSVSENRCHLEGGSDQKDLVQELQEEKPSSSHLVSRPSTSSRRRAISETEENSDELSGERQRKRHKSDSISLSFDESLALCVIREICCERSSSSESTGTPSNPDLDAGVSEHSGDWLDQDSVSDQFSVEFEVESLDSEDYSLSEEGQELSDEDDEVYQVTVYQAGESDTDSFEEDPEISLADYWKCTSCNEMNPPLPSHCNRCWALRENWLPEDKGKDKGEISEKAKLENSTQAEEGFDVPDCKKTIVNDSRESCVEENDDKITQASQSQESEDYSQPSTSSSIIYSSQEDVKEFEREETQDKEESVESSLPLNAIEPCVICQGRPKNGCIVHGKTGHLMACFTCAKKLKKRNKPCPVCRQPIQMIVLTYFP
Sequence of Mitogen-activated protein kinase 10 (P53779 whole entry): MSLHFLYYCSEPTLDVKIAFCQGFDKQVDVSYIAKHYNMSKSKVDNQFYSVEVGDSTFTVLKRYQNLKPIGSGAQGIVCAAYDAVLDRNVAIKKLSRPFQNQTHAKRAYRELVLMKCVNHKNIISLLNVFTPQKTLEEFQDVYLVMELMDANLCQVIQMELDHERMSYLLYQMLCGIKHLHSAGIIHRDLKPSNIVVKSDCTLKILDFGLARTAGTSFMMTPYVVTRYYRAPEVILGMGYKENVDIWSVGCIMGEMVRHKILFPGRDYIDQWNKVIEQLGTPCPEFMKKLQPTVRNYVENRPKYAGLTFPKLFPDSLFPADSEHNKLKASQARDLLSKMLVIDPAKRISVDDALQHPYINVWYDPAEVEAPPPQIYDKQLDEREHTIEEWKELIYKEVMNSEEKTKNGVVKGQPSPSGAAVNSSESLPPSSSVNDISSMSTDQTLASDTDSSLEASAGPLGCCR
Sequence of Sphingosine 1-phosphate receptor 1 (P21453 whole entry): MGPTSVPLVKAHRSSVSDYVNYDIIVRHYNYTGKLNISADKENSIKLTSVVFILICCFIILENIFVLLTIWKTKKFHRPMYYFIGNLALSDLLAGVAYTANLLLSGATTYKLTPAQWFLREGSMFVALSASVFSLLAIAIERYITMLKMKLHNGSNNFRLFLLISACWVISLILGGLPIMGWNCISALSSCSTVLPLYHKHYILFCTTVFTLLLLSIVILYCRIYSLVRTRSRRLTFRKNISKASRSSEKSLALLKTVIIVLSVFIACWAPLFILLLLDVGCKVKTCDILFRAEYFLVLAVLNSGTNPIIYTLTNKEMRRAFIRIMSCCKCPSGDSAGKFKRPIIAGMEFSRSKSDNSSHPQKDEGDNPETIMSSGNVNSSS
Sequence of Sphingosine 1-phosphate receptor 4 (O95977 whole entry): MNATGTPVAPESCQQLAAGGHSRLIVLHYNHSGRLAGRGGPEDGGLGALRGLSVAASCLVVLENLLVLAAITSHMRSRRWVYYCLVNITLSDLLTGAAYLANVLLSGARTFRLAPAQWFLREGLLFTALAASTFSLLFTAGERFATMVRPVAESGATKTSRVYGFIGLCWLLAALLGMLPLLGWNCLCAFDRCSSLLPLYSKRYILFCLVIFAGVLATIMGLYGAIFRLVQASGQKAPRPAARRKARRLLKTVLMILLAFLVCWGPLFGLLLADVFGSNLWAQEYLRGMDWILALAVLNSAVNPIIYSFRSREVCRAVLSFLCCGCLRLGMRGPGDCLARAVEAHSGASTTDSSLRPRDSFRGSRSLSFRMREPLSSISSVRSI
Sequence of Serine/threonine-protein phosphatase PP1-alpha catalytic subunit (P62136 whole entry): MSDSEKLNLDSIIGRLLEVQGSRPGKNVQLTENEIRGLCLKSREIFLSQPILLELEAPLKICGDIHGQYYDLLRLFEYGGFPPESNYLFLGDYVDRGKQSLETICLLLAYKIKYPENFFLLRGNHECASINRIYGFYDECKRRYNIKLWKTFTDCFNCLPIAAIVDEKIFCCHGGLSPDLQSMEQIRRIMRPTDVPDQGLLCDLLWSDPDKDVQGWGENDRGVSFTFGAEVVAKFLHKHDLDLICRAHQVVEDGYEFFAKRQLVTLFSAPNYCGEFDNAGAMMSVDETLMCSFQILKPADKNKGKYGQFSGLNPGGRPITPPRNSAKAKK
Sequence of Galanin receptor type 2 (O43603 whole entry): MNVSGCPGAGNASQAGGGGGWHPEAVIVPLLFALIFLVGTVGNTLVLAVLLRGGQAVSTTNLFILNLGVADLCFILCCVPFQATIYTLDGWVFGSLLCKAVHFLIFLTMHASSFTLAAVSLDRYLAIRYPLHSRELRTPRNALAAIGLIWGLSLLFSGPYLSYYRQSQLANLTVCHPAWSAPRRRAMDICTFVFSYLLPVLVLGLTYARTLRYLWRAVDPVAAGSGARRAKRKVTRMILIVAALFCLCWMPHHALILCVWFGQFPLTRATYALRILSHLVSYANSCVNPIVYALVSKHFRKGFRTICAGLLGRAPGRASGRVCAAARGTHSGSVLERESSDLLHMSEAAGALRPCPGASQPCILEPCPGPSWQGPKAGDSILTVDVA
Sequence of Induced myeloid leukemia cell differentiation protein Mcl-1 (Q07820 whole entry): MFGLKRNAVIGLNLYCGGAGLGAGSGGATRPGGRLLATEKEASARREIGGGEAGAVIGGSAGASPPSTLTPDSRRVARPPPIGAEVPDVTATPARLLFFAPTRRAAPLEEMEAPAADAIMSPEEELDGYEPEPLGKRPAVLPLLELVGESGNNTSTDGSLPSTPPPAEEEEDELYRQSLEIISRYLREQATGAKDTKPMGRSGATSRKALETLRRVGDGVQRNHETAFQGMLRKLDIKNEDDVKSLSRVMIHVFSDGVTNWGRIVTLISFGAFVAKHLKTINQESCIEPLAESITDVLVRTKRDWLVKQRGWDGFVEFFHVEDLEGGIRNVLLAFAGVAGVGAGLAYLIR

O=C(c1cccc(F)c1)N1CCCC(C(=O)N2CCCC2)C1 (stereo not drawn)
IC50 [1]: > 93.1 µM (not active)

CCN(CC)CCNC(=O)C1CCN(S(=O)(=O)c2c(C)noc2/C=C/c2ccccc2F)CC1
IC50 (Vero [2]): 25 µM (active)

CN(C)CCNC(=O)c1cc2sc3ccccc3c2s1
IC50 (Vero [2]): 24.5 µM (active) | IC50 (Vero [3]): 21 µM (active)

c1csc(-c2cnc3ccccc3n2)c1
IC50 [1]: 34 µM (not active)

Cc1cc(C(=O)COC(=O)c2cc(O)c3ccccc3c2O)c(C)n1CC1CCCO1 (stereo not drawn)
IC50 [4]: 3.09 µM (active) | CC50 [5]: 25.9 µM (active)

Cc1cccc(NC(c2ccc(O)cc2)c2ccc3ccc(C)nc3c2O)n1 (stereo not drawn)
EC50 (Transthyretin): > 167 µM (inactive)

Cc1cc(C(=O)Nc2cccc3ccccc23)n(-c2ccccc2)n1
EC50 [6]: 25 µM (not active)

Cc1noc(C)c1COc1ccc(C(=O)NCc2ccccn2)cc1
EC50 [6]: 2.96 µM (not active)

COc1ccc(-c2ccc3c(c2)O[C@@H](CN(C)Cc2ccc(-c4ccccc4)cc2)[C@@H](C)CN([C@@H](C)CO)S3(=O)=O)cc1
AC50 [7]: 32.6 µM (active)

Cc1c(C)n(Cc2ccccc2)c2ccc(C(=O)OCCN(C)C)cc12 [INDOCATE]
IC50 [8]: 8.78 µM (inactive) | IC50 [9]: 3.84 µM (active) | IC50 [10]: 12.8 µM (inactive) | IC50 [11]: 11.8 µM (inactive) | IC50 [12]: 12 µM (inactive) | IC50 (cells): 14.9 µM (inactive) | IC50 [13]: > 6.67 µM (inactive) | IC50 [14]: 11.3 µM (inactive) | IC50 [15]: 5.47 µM (inactive)

CCc1ccccc1NC(=O)CN(C)C(=O)Cn1ncc(Cl)c(Cl)c1=O
IC50 (Galanin receptor type 2): 7.62 µM (active) | IC50 [16]: 2.11 µM (active) | IC50 [17]: 13.6 µM (not active) | AC50 [18]: 11 µM (active) | AC50 [19]: 13.2 µM (active) | AC50 [20]: 4.59 µM (active)

COc1cccc(-c2ccc(CN(C)C[C@@H]3Oc4cc(C#C[C@@H](C)O)ccc4S(=O)(=O)N([C@@H](C)CO)C[C@@H]3C)cc2)c1
AC50 [7]: 32.6 µM (active)

COc1ccc(N2C(=O)CSC23C(=O)N2CCCc4cccc3c42)cc1 (stereo not drawn)
IC50 [21]: > 109 µM (inactive) | IC50 [22]: > 83.3 µM (inactive)

CCOc1ccc(NC(S)=Nc2ccc3nsnc3c2)cc1
IC50 [23]: > 67 µM (not active) | IC50 [24]: 8.78 µM (active) | IC50 [25]: 5.72 µM (active) | IC50 [26]: 2.32 µM (active) | AC50 [27]: 4.61 µM (active)

Cn1cc(-c2ccc(CN3C(=O)C(=O)c4c(F)ccc(F)c43)c(F)c2)cn1
EC50 [28]: 1.23 µM (active)

Cn1cc(-c2cc(F)c(CN3C(=O)C(=O)c4cccc(F)c43)c(F)c2)cn1
EC50 [28]: 1.03 µM (active)

CN1CCc2cc(Cl)c(O)cc2[C@H]2c3ccccc3CC[C@@H]21 [ECOPIPAM]
IC50 [9]: 15.4 µM (inactive) | IC50 (cells): > 33.3 µM (inactive)
